The text below walks through data of patent US10314917B2, “Targeted polymeric inflammation-resolving nanoparticles” (The Brigham and Women's Hospital, Inc., priority 2014, dated 2019).

Where no end group is shown, it is not given here.

One test concerns MCP-1 and TNFα. Kind of test: MCP-1 and TNFα production in LPS-activated peritoneal macrophages (ELISA). The following applies: equivalent dose of GW3965. The format is cell-based, murine. As for the experimental part: Experiments were conducted to assess the in vitro anti-inflammatory effects of GW3965-containing NPs and their ability to regulate LXR target gene expression such as ABCA1 and SREBP-1c. LPS-activated peritoneal macrophages were treated with the indicated NPs containing equivalent doses of GW3965. The supernatant was collected for ELISA analysis of MCP-1 and TNFα. The cells were collected for RT-qPCR analysis of MCP-1 and TNFα mRNA as described below.
In the next set of experiments, GW3965-containing NPs were evaluated to see if they are able to exert anti-inflammatory effects on macrophages. Isolated murine peritoneal macrophages were first treated with lipopolysaccharide (LPS) to induce the production of pro-inflammatory factors such as MCP-1 and TNFα. The activated macrophages were then treated with an equivalent dose of GW3965 in either solution or NP form. ELISA assay was performed on the culture supernatant to determine the production of MCP-1 and TNFα.

Test [1] has as its system atherosclerotic lesion area. Description: Atheroprotective effect in plaque-bearing LDLr−/− mice (lesion area, Oil Red O). The format is in vivo. The note with it: 8 mg/kg GW3965 daily i.v. for 14 days. As for the experimental part:
To explore the atheroprotective effects of these NPs, plaque-bearing LDLr−/− mice were randomly divided into five groups and treated with the following regimens with equivalent doses of 8 mg/kg entrapped GW3965 via daily intravenous administration for 14 consecutive days: i) empty PLGA-b-PEG NP without GW3965 (control); ii) GW3965 in solution form; iii) CNP; iv) TNPLyP-1; and v) TNPCREKA. The aim of this study was to determine whether GW3965-containing NPs would result in inhibition of atherosclerosis development and whether peptide conjugation would improve the delivery efficacy of GW3965.

Test [2] relates to zymosan-stimulated PMN infiltration. Kind of test: In vivo murine zymosan-induced peritonitis. The note with it: 100 ng/mouse i.v.; exudates 4 h post zymosan. Also noted: species or system C57BL/6J mice. How it is done:
A model of self-limited peritonitis was used to quantitatively assess resolution in vivo to determine whether the developed NPs containing Ac2-26 are anti-inflammatory and/or pro-resolving (Bannenberg 2005; Schwab 2007). Zymosan A was administered to C57BL/6J mice. In parallel, mice were then given vehicle, empty NPs as control, Ac2-26 in NPs, Scrm Ac2-26 in NPs, Ac2-26 native peptides described in detail below. Equal polymer concentration was loaded in both the NPs and Ac2-26 NPs.
1 ml of zymosan A (100 μg/mouse) in 1 ml of sterile saline was administered to female C57BL/6J mice (6-8 wk old, Charles River Laboratories, Wilmington, Mass., USA) to induce peritonitis (Bannenberg et al. J Immunol 174(7):4345-4355 (2005); Norling, et al. (2011) J Immunol 186(10):5543-5547). […]
For baseline PMN number measurements, mice were euthanized at selected time intervals (4, 12, or 24 hours post zymosan stimulation), with an overdose of isofluorane, following which peritoneal exudates were collected by lavaging with Ca^2+/Mg^2+ free phosphate buffered saline (PBS^−/−, 5 ml). Leukocytes were counted with a hemocytometer.
Peritoneal exudates were harvested 4 h post zymosan initiation, and living cells were quantified using trypan blue exclusion.
Differential cell counts were assessed via flow cytometry using an LSRII flow cytometer. […]

For test [3], the system named is liver macrophage infiltration. The note with it: during dietary intervention; P<0.01; cited from earlier work.

Take `O=C(O)Cc1cccc(OCCCN(Cc2cccc(C(F)(F)F)c2Cl)CC(c2ccccc2)c2ccccc2)c1` [GW3965, 3-(3-(2-chloro-3-trifluoromethylbenzyl-2,2diphenylethylamino)proproxy), phenylacetic acid]: the “production of MCP-1 and TNFα proteins” value with MCP-1 and TNFα was “substantially suppressed”. Moreover, in test [1], the “reduction in lesion area compared with controls” value is given as “pronounced reduction”.

As for “Ac2-26 peptide: annexin A1 N-terminal mimetic peptide that acts on the formyl peptide receptor ALX/FPR2 (Ac-AMVSEFLKQAWFIENEEQEYVQTVK; UniProt P04083 2-26, looked up, fragment)”, in test [2], the “blockade of zymosan-stimulated PMN infiltration” value was “approximately 30%”.

On to `CC/C=C\C[C@H](O)/C=C/C=C\C=C\C=C\[C@@H](O)[C@@H](O)C/C=C\CCC(=O)O` [RvD1], for which the “liver macrophage infiltration (change)” value in test [3] is on record as −15%.
